From paper PMC3175004 (Aquatic toxicology (Amsterdam, Netherlands), 2010)
pIC50, pKi: −log10 of the molar value.

Assays:
beluga AHR [1] = target: T1, beluga AHR (Delphinapterus leucas, UniProt Q95LD9); assay type: binding
T1 sequence (Q95LD9 11-845): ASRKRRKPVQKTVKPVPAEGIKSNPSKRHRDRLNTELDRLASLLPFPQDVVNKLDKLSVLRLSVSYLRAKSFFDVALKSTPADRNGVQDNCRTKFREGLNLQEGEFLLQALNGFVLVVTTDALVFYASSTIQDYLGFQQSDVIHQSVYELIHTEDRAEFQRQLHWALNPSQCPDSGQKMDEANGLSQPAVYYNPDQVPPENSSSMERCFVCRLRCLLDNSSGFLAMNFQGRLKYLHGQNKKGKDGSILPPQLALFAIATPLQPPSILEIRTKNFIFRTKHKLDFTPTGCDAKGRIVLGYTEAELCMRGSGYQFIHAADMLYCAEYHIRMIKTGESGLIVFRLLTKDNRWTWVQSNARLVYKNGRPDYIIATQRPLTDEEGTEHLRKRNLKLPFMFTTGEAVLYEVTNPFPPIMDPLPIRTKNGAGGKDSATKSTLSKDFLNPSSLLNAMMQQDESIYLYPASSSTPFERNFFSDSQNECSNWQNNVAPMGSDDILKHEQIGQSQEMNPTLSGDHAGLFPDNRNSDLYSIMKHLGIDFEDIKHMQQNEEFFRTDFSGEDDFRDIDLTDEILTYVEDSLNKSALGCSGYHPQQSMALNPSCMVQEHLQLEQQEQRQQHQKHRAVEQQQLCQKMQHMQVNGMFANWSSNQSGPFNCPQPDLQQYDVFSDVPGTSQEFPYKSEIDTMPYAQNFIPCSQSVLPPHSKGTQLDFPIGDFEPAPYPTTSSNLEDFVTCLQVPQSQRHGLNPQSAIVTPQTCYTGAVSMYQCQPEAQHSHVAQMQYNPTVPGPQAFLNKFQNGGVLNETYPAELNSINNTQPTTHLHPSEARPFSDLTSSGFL

[2] = test system: mouse AHR (Ah^b-1 allele); assay type: binding; settings: mouse REP vs rat REP
[3] = target: T2, mouse AHR (Ah^b-1 allele) (Mus musculus, UniProt P30561); assay type: binding
T2 sequence (P30561 10-848): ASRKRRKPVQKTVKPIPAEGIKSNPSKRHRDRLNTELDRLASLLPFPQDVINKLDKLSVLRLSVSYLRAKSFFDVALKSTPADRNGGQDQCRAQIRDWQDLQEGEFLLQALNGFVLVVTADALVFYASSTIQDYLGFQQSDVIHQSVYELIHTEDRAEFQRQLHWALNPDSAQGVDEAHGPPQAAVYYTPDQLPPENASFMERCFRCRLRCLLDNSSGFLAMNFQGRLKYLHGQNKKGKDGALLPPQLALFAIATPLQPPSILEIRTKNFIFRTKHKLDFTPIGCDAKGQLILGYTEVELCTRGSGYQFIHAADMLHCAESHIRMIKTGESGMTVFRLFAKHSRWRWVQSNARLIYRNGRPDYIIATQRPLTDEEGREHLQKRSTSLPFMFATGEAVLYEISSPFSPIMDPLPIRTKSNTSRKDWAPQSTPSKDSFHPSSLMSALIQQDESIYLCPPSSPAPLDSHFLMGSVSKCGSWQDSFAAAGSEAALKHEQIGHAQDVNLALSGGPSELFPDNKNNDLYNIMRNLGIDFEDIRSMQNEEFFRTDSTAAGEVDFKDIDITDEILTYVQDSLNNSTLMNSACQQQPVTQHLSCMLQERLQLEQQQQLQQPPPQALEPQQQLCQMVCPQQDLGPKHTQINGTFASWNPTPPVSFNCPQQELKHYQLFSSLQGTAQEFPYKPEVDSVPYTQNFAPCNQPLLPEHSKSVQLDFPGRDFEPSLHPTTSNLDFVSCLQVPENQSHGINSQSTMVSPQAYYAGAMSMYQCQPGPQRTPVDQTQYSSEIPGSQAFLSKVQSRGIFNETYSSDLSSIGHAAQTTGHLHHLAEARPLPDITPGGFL

beluga AHR [4] = settings: determined by saturation binding; ref Jensen and Hahn 2001; cited from earlier work

## Clc1ccc(-c2cc(Cl)c(Cl)c(Cl)c2)cc1 [PCB-81]
Beluga AHR [1]; beluga REP vs rat REP
  fold higher binding REP compared to rat: 14 fold
[2]
  fold higher binding REP compared to rat: 28 fold

## Clc1ccc(-c2cc(Cl)c(Cl)cc2Cl)cc1Cl [PCB-118]
Beluga AHR [1]; beluga REP vs rat REP
  fold lower REP compared to rat: 15 fold
[2]
  fold lower REP compared to rat: 10 fold

## Clc1ccc(-c2ccc(Cl)c(Cl)c2Cl)c(Cl)c1Cl [PCB-128]
Beluga AHR [1]; beluga AHR, maximum reached by competition curves
  inhibition of [3H]TCDD binding reached by the curves: 90%
[3]; mouse AHR, maximum reached by competition curves
  inhibition of [3H]TCDD binding reached by the curves: 80%

## Clc1cc2c(cc1Cl)Oc1cc(Cl)c(Cl)cc1O2 [TCDD, 2,3,7,8-tetrachlorodibenzo-p-dioxin, reference compound]
Beluga AHR [1]
  pIC50: 9.33
  pKi: 10.00
[3]
  pKi: 9.44

## [3H]c1c(Cl)c(Cl)cc2c1Oc1cc(Cl)c(Cl)c([3H])c1O2 [[^3H]TCDD, 2,3,7,8-Tetrachloro[1,6-^3H]dibenzo-p-dioxin]
Beluga AHR [4]
  binding affinity for beluga AHR vs mouse AHR, fold higher: ~ 2 fold
